Key:
Pyricularia oryzae = experiment: whole plant or invertebrate; type: in vivo; details: 100 is total disease control, 0 is no disease control; for Rice Blast (RB) protectant fungicide data, percent control: 300 g/ha, greenhouse; for pest or weed control at 300 g/ha: Pyricularia oryzae, topical, 144 h, read-out: Rice Blast (RB) protectant fungicide data, percent control, protectant, 300 g/ha, greenhouse
Sphaerotheca fuliginea = experiment: Cucumber Powdery Mildew (CPM) protectant test in the greenhouse; type: in vivo; details: 100 is total disease control, 0 is no disease control; for Cucumber Powdery Mildew (CPM) protectant fungicide data, percent control: 300 g/ha; for pest or weed control at 300 g/ha: Podosphaera fuliginea, topical, 168 h, read-out: Cucumber Powdery Mildew (CPM) protectant fungicide data, percent control
Experimental: Plants used in the fungicide testing program were grown in 2-¼-inch (5.7-cm). square pots containing RediEarth propagation substrate. The plants were raised under greenhouse conditions. The rice plants were 12-days-old and cucumbers were 13-days-old at the time of spraying with chemical treatments.
The sample of the experimental chemical was weighed and dissolved in an acetone-methanol-water solution (A/M/W at 1:1:2 ratio by volume).
After sprayer calibration, the test solutions were poured into the fungicide sprayer. The fungicide sprayer contains three spray nozzles, located approximately 10 cm above and to the sides of the plants. The spray produced by the nozzles results in uniform coverage of both the upper and lower parts of the plant leaves. After spraying, the treated plants were placed in a drying chamber for 4 hours, prior to sorting.
Cucumber Powdery Mildew (CPM), caused by the fungus Sphaerotheca fuliginea, was maintained on large cucumber plants. For inoculum preparation, five to eight leaves depending on size, completely covered with powdery mildew spores, were collected. The leaves were placed in a glass jar and covered with 500 ml of water, containing 5 drops of Tween-80. The material was filtered through two layers of cheesecloth to remove leaf fragments. The spore count was adjusted to 2×10^5 spores per ml.
Cucumber plants, cv. “Bush Champion,” were used for this test. The plants were thinned to one per pot after the cotyledons were fully developed. Two days before the test, the small leaves and meristem region were removed, leaving only the cotyledons and one large true leaf.
The protectant tests required that the cucumber plants be inoculated 1 day after spraying with the chemical treatment. The plants were inoculated with a hand-held spray bottle with the suspension of fungal spores. The leaves were lightly misted on the upper surface from two different spray directions. Disease development occurred in the greenhouse.
After seven days, the plants were evaluated for percent of disease control. The results are reported as percent control; 100 is total disease control, 0 is no disease control.

Row | Compound | Rice Blast (RB) protectant fungicide data, percent control (Pyricularia oryzae) | Cucumber Powdery Mildew (CPM) protectant fungicide data, percent control (Sphaerotheca fuliginea) | pest or weed control at 300 g/ha (Pyricularia oryzae) | pest or weed control at 300 g/ha (Sphaerotheca fuliginea)
1 | O=C1CN(CC=CCl)C(c2cc(Cl)cc(Cl)c2)=NN1CC=CCl (mixture of isomers) [Compound 66] | 50 percent control | 0 percent control | – | –
2 | O=C1CNC(c2cc(Cl)cc(Cl)c2)=NN1CC=CCl (mixture of isomers) [Compound 67] | 99 percent control | 80 percent control | – | –
3 | O=C1CNC(c2ccc(F)c(Cl)c2)=NN1CC(F)(F)F [Compound 1, 1-(2,2,2-trifluoroethyl)-3-(3-chloro-4-fluorophenyl)-4,5-dihydro-1,2,4-triazin-6-one] | – | – | 99% | 80%
4 | CCCCN1N=C(c2ccc(Cl)cc2Cl)NCC1=O [Compound 2, 1-butyl-3-(2,4-dichlorophenyl)-4,5-dihydro-1,2,4-triazin-6-one] | – | – | 95% | 85%
5 | CCCCN1N=C(c2ccc(Oc3ccccc3)cc2)NCC1=O [Compound 3, 1-Butyl-3-(4-phenoxyphenyl)-4,5-dihydro-1,2,4-triazin-6-one] | – | – | 80% | 0%
6 | O=C1CNC(c2ccc(Cl)c(Cl)c2)=NN1CC1CC1 [Compound 9, 1-Cyclopropylmethyl-3-(3,4-dichlorophenyl)-4,5-dihydro-1,2,4-triazin-6-one] | – | – | 100% | 80%
7 | C=CCOC(=O)N1CC(=O)N(CC(F)(F)F)N=C1c1cc(Cl)cc(Cl)c1 [Compound 10, 1-(2,2,2-trifluoroethyl)-3-(3,5-dichlorophenyl)-4-allyloxycarbonyl-4,5-dihydro-1,2,4-triazin-6-one] | – | – | 90% | 0%
8 | CC(C)(C)OC(=O)N1CC(=O)N(C(=O)OC(C)(C)C)N=C1c1cc(Cl)cc(Cl)c1 [Compound 11, 1,4-di-(t-butoxycarbonyl)-3-(3,5-dichlorphenyl)-4,5-dihydro-1,2,4-triazin-6-one] | 75 percent control | 0 percent control | – | –
9 | CCCCN1N=C(c2ccc(Cl)c(Cl)c2)N(C(=S)SC)CC1=O [Compound 12, 1-n-butyl-3-(3,4-dichlorophenyl)-4-methylthiothiocarbonyl-4,5-dihydro-1,2,4-triazin-6-one] | – | – | 95% | 0%
10 | CCCCN1N=C(c2ccc(Cl)c(Cl)c2)N(C=CS(=O)(=O)c2ccccc2)CC1=O [Compound 13, 1-n-butyl-3-(3.4-dichlorophenyl)-4-(2-phenylsulfonylethene)-4,5-dihydro-1,2,4-triazin-6-one] | 95 percent control | 0 percent control | – | –
11 | COC(=O)SN1CC(=O)N(CC(F)(F)F)N=C1c1cc(Cl)cc(Cl)c1 [Compound 14, 1-(2,2,2-trifluoroethyl)-3-(3,5-dichlorophenyl)-4-(methoxycarbonylthio)-4,5-dihydro-1,2,4-triazin-6-one] | – | – | 100% | 85%
12 | CCCCN1N=C(c2cc(Cl)cc(Cl)c2)N(C(=O)OCCl)CC1=O [Compound 15, 1-(n-butyl)-3-(3,5-dichlorophenyl)-4-(chloromethyloxycarbonyl)-4,5-dihydro-1,2,4-triazin-6-one] | – | – | 75% | 50%
13 | CCCCN1N=C(c2cc(Cl)cc(Cl)c2)N(C(=O)OCI)CC1=O [Compound 16, 1-(n-butyl)-3-(3,5-dichlorophenyl)-4-(iodomethyloxycarbonyl)-4,5-dihydro-1,2,4-triazin-6-one] | – | – | 90% | 75%
14 | CCCCN1N=C(c2ccc(Cl)c(Cl)c2)NCC1=S [Compound 17, 1-Butyl-3-(3,4-dichlorophenyl)-4,5-dihydro-1,2,4-triazin-6-thione] | – | – | 99% | 80%
